From patent US12077503B2, “Substituted cyclic amides and their use as herbicides” (FMC CORPORATION, priority 2015, dated 2024)

Key:
Assay type in all cases: in vivo
[1] = system: blackgrass (Alopecurus myosuroides); assay: Test A postemergence; settings: Alopecurus myosuroides, post-emergence, 240 h, postemergence, read-out: Blackgrass plant response rating; for pest or weed control at 125 g/ha: 125 g ai/ha, visual injury on 0 to 100 scale (0 no effect, 100 complete control), approx. 10 d; for pest or weed control at 500 g/ha: 500 g ai/ha, 0 to 100 scale, 0 is no effect, 100 is complete control
Outline: (§1)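 Seeded soil received test chemicals as a preemergence directed spray, and seedlings at one to two leaves, 2–10 cm tall, received them postemergence, in a non-phytotoxic, surfactant-containing solvent mixture. Pots were held in a greenhouse for approximately 10 d, then rated for injury from 0, no effect, to 100, complete control.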

[2] = system: pigweed (Amaranthus retroflexus); assay: Test A postemergence; settings: Amaranthus retroflexus, post-emergence, 240 h, postemergence, read-out: Pigweed plant response rating; for pest or weed control at 125 g/ha: 125 g ai/ha, visual injury on 0 to 100 scale (0 no effect, 100 complete control), approx. 10 d; for pest or weed control at 500 g/ha: 500 g ai/ha, 0 to 100 scale, 0 is no effect, 100 is complete control
Outline: as §1

[3] = system: barnyardgrass (Echinochloa crus-galli); assay: Test A postemergence; settings: Echinochloa crus-galli, post-emergence, 240 h, postemergence, read-out: Barnyardgrass plant response rating; for pest or weed control at 125 g/ha: 125 g ai/ha, visual injury on 0 to 100 scale (0 no effect, 100 complete control), approx. 10 d; for pest or weed control at 500 g/ha: 500 g ai/ha, 0 to 100 scale, 0 is no effect, 100 is complete control
Outline: as §1

[4] = system: Galium (catchweed bedstraw, Galium aparine); assay: Test A postemergence; settings: Galium, post-emergence, 240 h, postemergence, read-out: Galium plant response rating; for pest or weed control at 125 g/ha: 125 g ai/ha, visual injury on 0 to 100 scale (0 no effect, 100 complete control), approx. 10 d; for pest or weed control at 500 g/ha: 500 g ai/ha, 0 to 100 scale, 0 is no effect, 100 is complete control
Outline: as §1

[5] = system: corn (Zea mays); assay: Test A postemergence; settings: Zea mays, post-emergence, 240 h, postemergence, read-out: Corn plant response rating; for plant injury at 125 g/ha: 125 g ai/ha, visual injury on 0 to 100 scale (0 no effect, 100 complete control), approx. 10 d; for plant injury at 500 g/ha: 500 g ai/ha, 0 to 100 scale, 0 is no effect, 100 is complete control
Outline: as §1

[6] = system: Kochia (Kochia scoparia); assay: Test A postemergence; settings: Bassia scoparia, post-emergence, 240 h, postemergence, read-out: Kochia plant response rating; for pest or weed control at 125 g/ha: 125 g ai/ha, visual injury on 0 to 100 scale (0 no effect, 100 complete control), approx. 10 d; for pest or weed control at 500 g/ha: 500 g ai/ha, 0 to 100 scale, 0 is no effect, 100 is complete control
Outline: as §1

[7] = system: ryegrass, Italian (Italian ryegrass, Lolium multiflorum); assay: Test A postemergence; settings: Lolium multiflorum, post-emergence, 240 h, postemergence, read-out: Ryegrass, Italian plant response rating; for pest or weed control at 125 g/ha: 125 g ai/ha, visual injury on 0 to 100 scale (0 no effect, 100 complete control), approx. 10 d; for pest or weed control at 500 g/ha: 500 g ai/ha, 0 to 100 scale, 0 is no effect, 100 is complete control
Outline: as §1

[8] = system: giant foxtail (Setaria faberii); assay: Test A postemergence; settings: Setaria faberi, post-emergence, 240 h, postemergence, read-out: Foxtail, Giant plant response rating; for pest or weed control at 125 g/ha: 125 g ai/ha, visual injury on 0 to 100 scale (0 no effect, 100 complete control), approx. 10 d; for pest or weed control at 500 g/ha: 500 g ai/ha, 0 to 100 scale, 0 is no effect, 100 is complete control
Outline: as §1

[9] = system: ragweed (common ragweed, Ambrosia elatior); assay: Test A postemergence; settings: Ambrosia artemisiifolia, post-emergence, 240 h, postemergence, read-out: Ragweed plant response rating; for pest or weed control at 125 g/ha: 125 g ai/ha, visual injury on 0 to 100 scale (0 no effect, 100 complete control), approx. 10 d; for pest or weed control at 500 g/ha: 500 g ai/ha, 0 to 100 scale, 0 is no effect, 100 is complete control
Outline: as §1

[10] = system: wheat (Triticum aestivum); assay: Test A postemergence; settings: Triticum aestivum, post-emergence, 240 h, postemergence, read-out: Wheat plant response rating; for plant injury at 125 g/ha: 125 g ai/ha, visual injury on 0 to 100 scale (0 no effect, 100 complete control), approx. 10 d; for plant injury at 500 g/ha: 500 g ai/ha, 0 to 100 scale, 0 is no effect, 100 is complete control
Outline: as §1

[11] = system: pigweed (Amaranthus retroflexus); assay: Test A preemergence; settings: Amaranthus retroflexus, pre-emergence, 240 h, preemergence, 0 to 100 scale where 0 is no effect and 100 is complete control, read-out: Pigweed plant response rating; for pest or weed control at 125 g/ha: 125 g ai/ha, approx. 10 d; for pest or weed control at 500 g/ha: 500 g ai/ha
[12] = system: barnyardgrass (Echinochloa crus-galli); assay: Test A preemergence; settings: Echinochloa crus-galli, pre-emergence, 240 h, preemergence, read-out: Barnyardgrass plant response rating; for pest or weed control at 125 g/ha: 125 g ai/ha, 0 to 100 scale where 0 is no effect and 100 is complete control, approx. 10 d; for pest or weed control at 500 g/ha: 500 g ai/ha, visual injury rating about 10 d after treatment, 0 to 100 scale (0 no effect, 100 complete control)
Outline: as §1

[13] = system: Kochia (Kochia scoparia); assay: Test A preemergence; settings: Bassia scoparia, pre-emergence, 240 h, preemergence, 0 to 100 scale where 0 is no effect and 100 is complete control, read-out: Kochia plant response rating; for pest or weed control at 125 g/ha: 125 g ai/ha, approx. 10 d; for pest or weed control at 500 g/ha: 500 g ai/ha
Outline: as §1

[14] = system: ryegrass, Italian (Italian ryegrass, Lolium multiflorum); assay: Test A preemergence; settings: Lolium multiflorum, pre-emergence, 240 h, preemergence, 0 to 100 scale where 0 is no effect and 100 is complete control, read-out: Ryegrass, Italian plant response rating; for pest or weed control at 125 g/ha: 125 g ai/ha, approx. 10 d; for pest or weed control at 500 g/ha: 500 g ai/ha
Outline: as §1

[15] = system: giant foxtail (Setaria faberii); assay: Test A preemergence; settings: Setaria faberi, pre-emergence, 240 h, preemergence, 0 to 100 scale where 0 is no effect and 100 is complete control, read-out: Foxtail, Giant plant response rating; for pest or weed control at 125 g/ha: 125 g ai/ha, approx. 10 d; for pest or weed control at 500 g/ha: 500 g ai/ha
Outline: as §1

[16] = system: ragweed (common ragweed, Ambrosia elatior); assay: Test A preemergence; settings: Ambrosia artemisiifolia, pre-emergence, 240 h, preemergence, 0 to 100 scale where 0 is no effect and 100 is complete control, read-out: Ragweed plant response rating; for pest or weed control at 125 g/ha: 125 g ai/ha, approx. 10 d; for pest or weed control at 500 g/ha: 500 g ai/ha
Outline: as §1

SMILES | pest or weed control at 125 g/ha [1] [%] | pest or weed control at 500 g/ha [1] [%] | pest or weed control at 125 g/ha [2] [%] | pest or weed control at 500 g/ha [2] [%] | pest or weed control at 125 g/ha [3] [%] | pest or weed control at 500 g/ha [3] [%] | pest or weed control at 125 g/ha [4] [%] | pest or weed control at 500 g/ha [4] [%] | plant injury at 125 g/ha [5] [%] | plant injury at 500 g/ha [5] [%] | pest or weed control at 125 g/ha [6] [%] | pest or weed control at 500 g/ha [6] [%] | pest or weed control at 125 g/ha [7] [%] | pest or weed control at 500 g/ha [7] [%] | pest or weed control at 125 g/ha [8] [%] | pest or weed control at 500 g/ha [8] [%] | pest or weed control at 125 g/ha [9] [%] | pest or weed control at 500 g/ha [9] [%] | plant injury at 125 g/ha [10] [%] | plant injury at 500 g/ha [10] [%] | also measured
CN1C[C@H](c2csc3ccccc23)[C@@H](C(=O)Nc2cccc(F)c2F)C1=O [Compound 1115] | 30 | 40 | 20 | 20 | 80 | 90 | 0 | 30 | 40 | 50 | 20 | 40 | 20 | 40 | 70 | 90 | 0 | 30 | 20 | 30 | pest or weed control at 125 g/ha [11]: 0%; pest or weed control at 500 g/ha [11]: 40%; pest or weed control at 125 g/ha [12]: 90%; pest or weed control at 500 g/ha [12]: 90%; pest or weed control at 125 g/ha [13]: 70%; pest or weed control at 500 g/ha [13]: 70%; pest or weed control at 125 g/ha [14]: 50%; pest or weed control at 500 g/ha [14]: 60%; pest or weed control at 125 g/ha [15]: 90%; pest or weed control at 500 g/ha [15]: 90%; pest or weed control at 125 g/ha [16]: 0%; pest or weed control at 500 g/ha [16]: 20%
O=C1NC[C@H](c2csc(C(F)F)c2)[C@H]1C(=O)Nc1ccccc1F [Compound 1118] | 20 | 60 | 0 | 20 | 80 | 90 | 50 | 60 | 0 | 20 | 0 | 30 | 20 | 50 | 0 | 50 | 0 | 20 | 20 | 20 | pest or weed control at 125 g/ha [11]: 0%; pest or weed control at 500 g/ha [11]: 0%; pest or weed control at 125 g/ha [12]: 80%; pest or weed control at 500 g/ha [12]: 90%; pest or weed control at 125 g/ha [13]: 0%; pest or weed control at 500 g/ha [13]: 70%; pest or weed control at 125 g/ha [14]: 40%; pest or weed control at 500 g/ha [14]: 50%; pest or weed control at 125 g/ha [15]: 60%; pest or weed control at 500 g/ha [15]: 90%; pest or weed control at 125 g/ha [16]: 20%; pest or weed control at 500 g/ha [16]: 60%
